Data taken from patent US12049439B2 (OrsoBio, Inc., priority 2018, dated 2024).

System: PC-3 cells
Experiment: PC-3 Oxygen Rate Consumption (OCR) Assay
Type: cell-based
Settings: Homo sapiens, 0.05 h, medium with 2% FBS, OCR at 3-min post-injection normalized to % increase over DMSO-treated cells, concentration for half-maximal OCR increase, read-out: EC50-PC3-OCR-FBS-3min
Description: PC-3 Oxygen Rate Consumption (OCR) Assay Procedure:
One day before the assay, PC-3 cells were seeded at 2.5×10^4 cells/160 μL/well in a 96-well XFe96 cell plate, part of a FlexPak containing a cell plate and a cartridge (Agilent, Sunnyvale, CA). The cells were incubated overnight at 37° C. in a 5% CO2 and 90% humidity incubator with F12K culture medium (ThermoFisher Scientific/Invitrogen, Grand Island, NY) containing 10% FBS and 1% penicillin/streptomycin. On the day of the assay, the cells were washed twice with 300 µL/well Medium A [XF assay medium (Agilent) supplemented 10 mM glucose, 1 mM pyruvate, and 2% fetal bovine serum (FBS)], and incubated with 175 µL/well Media A for 1 hr in a 37° C., non-CO2 incubator prior to the measurement of cellular respiration. Compounds of interests were prepared in 1:2 serial dilutions with 100% DMSO and then further diluted into 8× working stock with Media A prior to being loaded to Injection Port A on a XFe96 Analyzer (Agilent). Six replicates were used for each treatment. The cartridge was calibrated in the XFe96 Analyzer 30 minute prior to the measurement of cellular respiration. Basal levels of OCR were measured three times, each using a “3-minute mixing/3-minute measurement” program. The compound effect was measured immediately after compound injection from Injection Port A, and OCR was monitored continuously 10 times, each time using a “1-minute mixing/2-minute measurement” program for a total of 30 minutes post compound injection. The level of OCR at 3-min post-injection was normalized to % increase over DMSO-treated cells. The concentration of compound required to reach the half-maximal OCR increase was defined as EC50 Table 2 contains PC3 OCR EC50 values for the compounds disclosed.

Row | Compound | EC50 [µM]
1 | CS(=O)(=O)Nc1cc(F)ccc1C(=O)NC12CC(C(F)(F)F)(C1)C2 [Example 1, 4-fluoro-2-(methylsulfonamido)-N-(3-(trifluoromethyl)bicyclo[1.1.1]pentan-1-yl)benzamide] | 13.1
2 | O=C(NC12CC(C(F)(F)F)(C1)C2)c1ccc(F)cc1NS(=O)(=O)C1CC1 [Example 2, 2-(cyclopropanesulfonamido)-4-fluoro-N-(3-(trifluoromethyl)bicyclo[1.1.1]pentan-1-yl)benzamide] | 3.65
3 | CC(C)(C)c1ccc(S(=O)(=O)Nc2cc(F)ccc2C(=O)NC23CC(C(F)(F)F)(C2)C3)cc1 [Example 3, 2-((4-(tert-butyl)phenyl)sulfonamido)-4-fluoro-N-(3-(trifluoromethyl)bicyclo[1.1.1]pentan-1-yl)benzamide] | 0.785
4 | CC(C)(C)c1ccc(S(=O)(=O)Nc2cc(C(F)(F)F)ccc2C(=O)NC23CC(C(F)(F)F)(C2)C3)cc1 [Example 4, 2-((4-(tert-butyl)phenyl)sulfonamido)-4-(trifluoromethyl)-N-(3-(trifluoromethyl)bicyclo[1.1.1]pentan-1-yl)benzamide] | 0.619
5 | CS(=O)(=O)c1ccc(S(=O)(=O)Nc2cc(F)ccc2C(=O)NC23CC(C(F)(F)F)(C2)C3)cc1 [Example 5, 4-fluoro-2-((4-(methylsulfonyl)phenyl)sulfonamido)-N-(3-(trifluoromethyl)bicyclo[1.1.1]pentan-1-yl)benzamide] | 5.8
6 | O=C(NC12CC(C(F)(F)F)(C1)C2)c1ccc(C(F)(F)F)cc1NS(=O)(=O)c1ccc(OC(F)(F)F)cc1 [Example 6, 2-((4-(trifluoromethoxy)phenyl)sulfonamido)-4-(trifluoromethyl)-N-(3-(trifluoromethyl)bicyclo[1.1.1]pentan-1-yl)benzamide] | 0.267
7 | CC(C)(C)c1ccc(S(=O)(=O)Nc2cc(C(F)(F)F)ccc2C(=O)NC23CC(C#N)(C2)C3)cc1 [Example 7, 2-((4-(tert-butyl)phenyl)sulfonamido)-N-(3-cyanobicyclo[1.1.1]pentan-1-yl)-4-(trifluoromethyl)benzamide] | 0.813
8 | CS(=O)(=O)c1ccc(S(=O)(=O)Nc2cc(C(F)(F)F)ccc2C(=O)NC23CC(C(F)(F)F)(C2)C3)cc1 [Example 8, 2-((4-(methylsulfonyl)phenyl)sulfonamido)-4-(trifluoromethyl)-N-(3-(trifluoromethyl)bicyclo[1.1.1]pentan-1-yl)benzamide] | 4.1
9 | CS(=O)(=O)c1ccc(S(=O)(=O)Nc2cc(C(F)(F)F)ccc2C(=O)NC23CCC(F)(CC2)CC3)cc1 [Example 9, N-(4-fluorobicyclo[2.2.2]octan-1-yl)-2-((4-(methylsulfonyl)phenyl)sulfonamido)-4-(trifluoromethyl)benzamide] | 5.56
10 | CS(=O)(=O)c1ccc(S(=O)(=O)Nc2cc(C(F)(F)F)ccc2C(=O)NC23CC4CC(CC(C4)C2)C3)cc1 [Example 10, N-((3s,5s,7s)-adamantan-1-yl)-2-((4-(methylsulfonyl)phenyl)sulfonamido)-4-(trifluoromethyl)benzamide] | 1.22
11 | CS(=O)(=O)c1ccc(S(=O)(=O)Nc2cc(C(F)(F)F)ccc2C(=O)NC23CC(c4ccccc4)(C2)C3)cc1 [Example 11, 2-((4-(methylsulfonyl)phenyl)sulfonamido)-N-(3-phenylbicyclo[1.1.1]pentan-1-yl)-4-(trifluoromethyl)benzamide] | 1.92
12 | CS(=O)(=O)c1ccc(S(=O)(=O)Nc2cc(F)ccc2C(=O)NC23CC(c4ccccc4)(C2)C3)cc1 [Example 12, 4-fluoro-2-((4-(methylsulfonyl)phenyl)sulfonamido)-N-(3-phenylbicyclo[1.1.1]pentan-1-yl)benzamide] | 6.88
13 | CC(C)(C)c1ccc(C(=O)NC23CC(C(F)(F)F)(C2)C3)c(NS(=O)(=O)c2ccc(S(C)(=O)=O)cc2)c1 [Example 13, 4-(tert-butyl)-2-((4-(methylsulfonyl)phenyl)sulfonamido)-N-(3-(trifluoromethyl)bicyclo[1.1.1]pentan-1-yl)benzamide] | 5.72
14 | CC(C)(C)c1ccc(C(=O)NC23CC(C#N)(C2)C3)c(NS(=O)(=O)c2ccc(S(C)(=O)=O)cc2)c1 [Example 14, 4-(tert-butyl)-N-(3-cyanobicyclo[1.1.1]pentan-1-yl)-2-((4-(methylsulfonyl)phenyl)sulfonamido)benzamide] | ≥ 20
15 | CC(C)(C)c1ccc(C(=O)NC23CC(c4ccccc4)(C2)C3)c(NS(=O)(=O)c2ccc(S(C)(=O)=O)cc2)c1 [Example 15, 4-(tert-butyl)-2-((4-(methylsulfonyl)phenyl)sulfonamido)-N-(3-phenylbicyclo[1.1.1]pentan-1-yl)benzamide] | 10.9
16 | CC(C)(C)c1ccc(S(=O)(=O)Nc2cc(S(C)(=O)=O)ccc2C(=O)NC23CC(C(F)(F)F)(C2)C3)cc1 [Example 16, 2-((4-(tert-butyl)phenyl)sulfonamido)-4-(methylsulfonyl)-N-(3-(trifluoromethyl)bicyclo[1.1.1]pentan-1-yl)benzamide] | 5.55
17 | O=C(NC12CC(C(F)(F)F)(C1)C2)c1ccc(C(F)(F)F)cc1NS(=O)(=O)c1ccc(-n2cnnn2)cc1 [Example 17, 2-((4-(1H-tetrazol-1-yl)phenyl)sulfonamido)-4-(trifluoromethyl)-N-(3-(trifluoromethyl)bicyclo[1.1.1]pentan-1-yl)benzamide] | 5.83
18 | CS(=O)(=O)c1ccc(S(=O)(=O)Nc2cc(C(F)(F)F)ccc2C(=O)NC23CC(C#N)(C2)C3)cc1 [Example 18, N-(3-cyanobicyclo[1.1.1]pentan-1-yl)-2-((4-(methylsulfonyl)phenyl)sulfonamido)-4-(trifluoromethyl)benzamide] | 114
19 | Cn1cc(S(=O)(=O)Nc2cc(C(F)(F)F)ccc2C(=O)NC23CC(C(F)(F)F)(C2)C3)cn1 [Example 19, 2-((1-methyl-1H-pyrazole)-4-sulfonamido)-4-(trifluoromethyl)-N-(3-(trifluoromethyl)bicyclo[1.1.1]pentan-1-yl)benzamide] | 6.41
20 | CS(=O)(=O)c1ccc(S(=O)(=O)Nc2cc(C(F)(F)F)ccc2C(=O)NC23CC(F)(C2)C3)cc1 [Example 20, N-(3-fluorobicyclo[1.1.1]pentan-1-yl)-2-((4-(methylsulfonyl)phenyl)sulfonamido)-4-(trifluoromethyl)benzamide] | 14.3
21 | CS(=O)(=O)c1ccc(S(=O)(=O)Nc2cc(F)ccc2C(=O)NC23CC(F)(C2)C3)cc1 [Example 21, 4-fluoro-N-(3-fluorobicyclo[1.1.1]pentan-1-yl)-2-((4-(methylsulfonyl)phenyl)sulfonamido)benzamide] | 38.9
22 | CS(=O)(=O)c1cccc(S(=O)(=O)Nc2cc(F)ccc2C(=O)NC23CC(C(F)(F)F)(C2)C3)c1 [Example 22, 4-fluoro-2-((3-(methylsulfonyl)phenyl)sulfonamido)-N-(3-(trifluoromethyl)bicyclo[1.1.1]pentan-1-yl)benzamide] | 9.97
23 | CS(=O)(=O)c1ccc(S(=O)(=O)Nc2cc(C(F)(F)F)ccc2C(=O)NC23CC(C2)C3)cc1 [Example 23, N-(bicyclo[1.1.1]pentan-1-yl)-2-((4-(methylsulfonyl)phenyl)sulfonamido)-4-(trifluoromethyl)benzamide] | 12
